Measured values published in ChEMBL document CHEMBL1129893 (Bioorg Med Chem Lett, 1997).
pIC50: −log10 of the molar value. The source made the active and inactive calls. The calls are words filed in the database; no cut-off is given here.

Columns and labels:
Estrogen receptor [1] = target: T1, Estrogen receptor (Homo sapiens, UniProt Q92731+P03372); settings: mcf-7
Description: Antagonist effect in breast tissue was assayed by inhibition of estrogen stimulated MCF-7 cell proliferation

Estrogen receptor [2] = target: T1, Estrogen receptor; assay: Displacement of [3H]estradiol from estrogen receptor in MCF-7 cell lysate; Inactive; assay type: cell-free

| pIC50 (Estrogen receptor [1]) | Relative binding affinity (Estrogen receptor [2]) | IC50 (Estrogen receptor [1]) | SMILES |
| --- | --- | --- | --- |
| 7.52 | – | – | COC(=O)c1ccc2c(C(=O)c3ccc(OCCN4CCCCC4)cc3)c(-c3ccc(O)cc3)sc2c1 |
| 7.30 | – | – | CCOC(=O)c1ccc(-c2sc3cc(O)ccc3c2C(=O)c2ccc(OCCN3CCCCC3)cc2)cc1 |
| 7.22 | – | – | CC(=O)c1ccc2c(C(=O)c3ccc(OCCN4CCCCC4)cc3)c(-c3ccc(O)cc3)sc2c1 |
| – | inactive | – | O=C(O)c1ccc2c(C(=O)c3ccc(OCCN4CCCCC4)cc3)c(-c3ccc(O)cc3)sc2c1 |
| 6.70 | – | – | CCOP(=O)(OCC)c1ccc2c(C(=O)c3ccc(OCCN4CCCCC4)cc3)c(-c3ccc(O)cc3)sc2c1 |
| – | – | 0.04 µM | CC(C)COC(=O)c1ccc2c(C(=O)c3ccc(OCCN4CCCCC4)cc3)c(-c3ccc(O)cc3)sc2c1 |
| 7.49 | – | – | CC(=O)c1ccc(-c2sc3cc(O)ccc3c2C(=O)c2ccc(OCCN3CCCCC3)cc2)cc1 |
| 6.68 | – | – | CCOP(=O)(OCC)c1ccc(-c2sc3cc(O)ccc3c2C(=O)c2ccc(OCCN3CCCCC3)cc2)cc1 |
| 6.49 | – | – | O=C(O)c1ccc(-c2sc3cc(O)ccc3c2C(=O)c2ccc(OCCN3CCCCC3)cc2)cc1 |
| – | – | 1 µM | COC(=O)c1ccc(-c2sc3cc(C(=O)OC)ccc3c2C(=O)c2ccc(OCCN3CCCCC3)cc2)cc1 |
| 9.10 | – | – | C#Cc1ccc(-c2sc3cc(O)ccc3c2C(=O)c2ccc(OCCN3CCCCC3)cc2)cc1 |
| 7.70 | – | – | CN(C)C(=O)c1ccc(-c2sc3cc(O)ccc3c2C(=O)c2ccc(OCCN3CCCCC3)cc2)cc1 |
| – | – | 1 µM | COC(=O)c1ccc2c(C(=O)c3ccc(OCCN4CCCCC4)cc3)c(-c3ccccc3)sc2c1 |
| – | inactive | 1 µM | COC(=O)c1ccc(-c2sc3ccccc3c2C(=O)c2ccc(OCCN3CCCCC3)cc2)cc1 |
| 7.30 | – | – | COC(=O)c1ccc(-c2sc3cc(O)ccc3c2C(=O)c2ccc(OCCN3CCCCC3)cc2)cc1 |
| – | – | 1 µM | NC(=O)c1ccc2c(C(=O)c3ccc(OCCN4CCCCC4)cc3)c(-c3ccc(O)cc3)sc2c1 |
| 7.40 | – | – | CNC(=O)c1ccc(-c2sc3cc(O)ccc3c2C(=O)c2ccc(OCCN3CCCCC3)cc2)cc1 |
| 7.70 | – | – | C#Cc1ccc2c(C(=O)c3ccc(OCCN4CCCCC4)cc3)c(-c3ccc(O)cc3)sc2c1 |
| 8.15 | – | – | C=Cc1ccc(-c2sc3cc(O)ccc3c2C(=O)c2ccc(OCCN3CCCCC3)cc2)cc1 |
| 6.70 | – | – | NC(=O)c1ccc(-c2sc3cc(O)ccc3c2C(=O)c2ccc(OCCN3CCCCC3)cc2)cc1 |
| – | – | 0.008 µM | N#Cc1ccc(-c2sc3cc(O)ccc3c2C(=O)c2ccc(OCCN3CCCCC3)cc2)cc1 |
| – | – | 0.04 µM | CCCCOC(=O)c1ccc2c(C(=O)c3ccc(OCCN4CCCCC4)cc3)c(-c3ccc(O)cc3)sc2c1 |
